Test results as given in patent publication US10851083B2, “Benzoimidazoles as prolyl hydroxylase inhibitors” (Janssen Pharmaceutica NV, priority 2008, dated 2020).

What was measured:
[1] = molecular target: human PHD2181-417 (Homo sapiens (Human), UniProt Q9GZT9); assay: PHD2 enzyme activity assay ([14C]-succinic acid production); format: biochemical; details: PHD2181-417 polypeptide, HIF-1α peptide 10 μM, [5-14C]-2-oxoglutaric acid; 30 min pre-incubation; tested 10 μM to 3 nM;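 further: reaction ran 10 min with compound in Tris pH 7.5 buffer with catalase, DTT and ascorbate, labelled succinate freed of leftover 2-oxoglutarate by DNP precipitation, then beta counted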
[2] = system: Hep-3B cells; assay: Cellular assay: EPO secretion in Hep-3B cells; format: cell-based, human; set-up: EPO secretion, % of control compound: dose or concentration left out as unconfirmed; details: Homo sapiens, Hep3B, 24 h, EPO secretion as percentage of control compound 7-[(4-Chloro-phenyl)-(5-methyl-isoxazol-3-ylamino)-methyl]-quinolin-8-ol, read-out: Cellular % EPO Stimulation

Chain of human PHD2181-417 (Q9GZT9 181-417): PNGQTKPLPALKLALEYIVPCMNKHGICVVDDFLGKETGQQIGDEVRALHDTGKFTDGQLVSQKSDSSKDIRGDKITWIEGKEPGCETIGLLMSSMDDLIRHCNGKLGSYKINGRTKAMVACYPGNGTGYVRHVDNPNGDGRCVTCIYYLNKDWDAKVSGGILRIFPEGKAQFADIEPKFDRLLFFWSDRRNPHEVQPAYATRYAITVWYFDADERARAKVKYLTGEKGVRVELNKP

Row | Structure (SMILES) | Enzyme pIC50 [1] | EPO secretion, % of control compound [2]
1 | O=C(CN1CCCCC1)Nc1cc2nc(-n3cc(C(=O)O)cn3)[nH]c2cc1Cl [Example 143, 1-[6-Chloro-5-(2-piperidin-1-yl-acetylamino)-1H-benzoimidazol-2-yl]-1H-pyrazole-4-carboxylic Acid] | 6.2 | 20%
2 | CCCS(=O)(=O)c1cc2[nH]c(-n3cc(C(=O)O)cn3)nc2cc1Cl [Example 102, 1-[5-Chloro-6-(propane-1-sulfonyl)-1H-benzoimidazol-2-yl]-1H-pyrazole-4-carboxylic Acid] | 7.5 | 54.9%
3 | CSc1cc2[nH]c(-n3cc(C(=O)O)cn3)nc2cc1Cl [Example 75, 1-(5-Chloro-6-methylsulfanyl-1H-benzoimidazol-2-yl)-1H-pyrazole-4-carboxylic Acid] | 7 | 106%
4 | O=C(O)c1cnn(-c2nc3c(Cl)ncnc3[nH]2)c1 [Example 185, 1-(6-Chloro-9H-purin-8-yl)-1H-pyrazole-4-carboxylic Acid] | 5.3 | 11.7%
5 | O=C(O)c1cnn(-c2nc3cc(SCc4ccccc4)c(Cl)cc3[nH]2)c1 [Example 66, 1-(5-Benzylsulfanyl-6-chloro-1H-benzoimidazol-2-yl)-1H-pyrazole-4-carboxylic Acid] | 6.7 | 41.6%
6 | Cc1cc(Cl)cc2[nH]c(-n3cc(C(=O)O)cn3)nc12 [Example 33, 1-(6-Chloro-4-methyl-1H-benzoimidazol-2-yl)-1H-pyrazole-4-carboxylic Acid] | 6 | 13.4%
7 | O=C(O)c1cnn(-c2nc3c(Cl)cccc3[nH]2)c1 [Example 27, 1-(4-Chloro-1H-benzoimidazol-2-yl)-1H-pyrazole-4-carboxylic Acid] | 6.1 | 19.1%
8 | O=C(O)c1cnn(-c2nc3c(Cl)c(Cl)c(Cl)cc3[nH]2)c1 [Example 127, 1-(4,5,6-Trichloro-1H-benzoimidazol-2-yl)-1H-pyrazole-4-carboxylic Acid] | 6.9 | 70.6%

More lines, main results first:

Row | Enzyme pIC50 [1] | Structure (SMILES) | EPO secretion, % of control compound [2]
9 | 6.8 | O=C(O)c1cnn(-c2nc3cc(SCc4ccc(F)cc4)c(Cl)cc3[nH]2)c1 [Example 68, 1-[6-Chloro-5-(4-fluoro-benzylsulfanyl)-1H-benzoimidazol-2-yl]-1H-pyrazole-4-carboxylic Acid] | 58.4%
10 | 7.4 | Cc1cccc(S(=O)(=O)c2cc3nc(-n4cc(C(=O)O)cn4)[nH]c3cc2Cl)c1 [Example 82, 1-[6-Chloro-5-(toluene-3-sulfonyl)-1H-benzoimidazol-2-yl]-1H-pyrazole-4-carboxylic Acid] | 85.3%
11 | 6.6 | COc1ccc(Sc2cc3nc(-n4cc(C(=O)O)cn4)[nH]c3cc2Cl)cc1 [Example 65, 1-[6-Chloro-5-(4-methoxy-phenylsulfanyl)-1H-benzoimidazol-2-yl]-1H-pyrazole-4-carboxylic Acid] | 56.3%
12 | 7.4 | N#Cc1cc2nc(-n3cc(C(=O)O)cn3)[nH]c2cc1Cl [Example 39, 1-(6-Chloro-5-cyano-1H-benzoimidazol-2-yl)-1H-pyrazole-4-carboxylic Acid] | 29.9%
13 | 7.4 | O=C(O)c1cnn(-c2nc3cc(Oc4ccc(Cl)c(Cl)c4)c(C(F)(F)F)cc3[nH]2)c1 [Example 50, 1-[5-(3,4-Dichloro-phenoxy)-6-trifluoromethyl-1H-benzoimidazol-2-yl]-1H-pyrazole-4-carboxylic Acid] | 18%
14 | 6.4 | O=C(O)c1cnn(-c2nc3cc(OCc4ccccc4)c(Cl)cc3[nH]2)c1 [Example 59, 1-(5-Benzyloxy-6-chloro-1H-benzoimidazol-2-yl)-1H-pyrazole-4-carboxylic Acid] | 55.9%
